Reference: patent publication US20250367171A1, “THERAPEUTIC OR PROPHYLACTIC AGENT FOR PERIPHERAL NEUROPATHIES” (Toray Industries, Inc., priority 2017, published 2025)

Key:
[1] = system: fetal rat dorsal root ganglion-derived established neuronal cell line ND15; experiment: Repair effect on cisplatin-induced cell damage (cell viability), post-treatment; type: cell-based; settings: ND15 cells, 24 hours cisplatin, then 2 hours post-treatment with compound 1 at 0.5, 5 or 50 μM
Method: A fetal rat dorsal root ganglion-derived established neuronal cell line ND15 was cultured in 10% FBS-containing DMEM. On the next day, the cells were cultured in 10% FBS-containing DMEM containing EC23 (10 μM, Reinner) for 8 days, for differentiation into neurons.
For measurement of cell viability, the medium was exchanged with DMEM/F12 medium containing alamarBlue (Invitrogen), followed by 2 hours of culture, and then the absorbance at wavelength of 570 nm and the absorbance at wavelength of 595 nm were measured. Cell viability was calculated using the ratio of the absorbance at wavelength of 570 nm to the absorbance at wavelength of 595 nm and the untreated group designated as 100%.
In a manner similar to Example 1, cell damage was induced to a fetal rat dorsal root ganglion-derived established neuronal cell line ND15 by the use of cisplatin, and then the cell viability was measured. After 24 hours of treatment with cisplatin, compound 1 was contained in a medium for 2 hours of treatment (final concentration of 0.5, 5 or 50 μM). Groups were composed of 6 groups: an untreated group; a 50 μM compound 1 treatment group; a cisplatin treatment group; a cisplatin and 0.5 μM compound 1 treatment group; a cisplatin and 5 μM compound 1 treatment group; and a cisplatin and 50 μM compound 1 treatment group.

[2] = system: co-culture of rat dorsal root ganglion neurons and Schwann cells; experiment: Myelination in co-culture, MBP immunostaining, number of myelin sheath segments; type: cell-based; settings: 30 μM with ascorbic acid treatment, vs vehicle treatment group
Method: The dorsal root ganglion was excised from a fetus of a female SD rat at 15 days of pregnancy, and then neurons and Schwann precursor cells thereof were separately cultured (the initial day of cell culture was designated as Day 1). On day 19 from the initial day of cell culture (Day19), Schwann precursor cells were added to the culture of neurons to initiate co-culture. Myelination was induced by treatment with ascorbic acid (a total of 4 to 5 times in accordance with 2 to 3 times of medium exchange) on the 26th to 40th days (Days 26 to 40) from the initial day of cell culture.
In combination with ascorbic acid treatment, treatment with compound 1 dissolved in sterile distilled water (final concentration of 30 μM) was performed 4 to 5 times in total. As a control, treatment with sterile distilled water instead of the compound 1 solution was performed. Groups were composed of 2 groups: a sterile distilled water treatment group (Vehicle treatment group); and a 30 μM compound 1 treatment group (compound 1 treatment group). […]
Fluorescent images of MBP were taken with a fluorescence microscope (DMI4000B, Leica), and then the number of myelin sheath segments (≥25 μm) was analyzed based on the images. […]

[3] = system: rat streptozotocin-induced diabetes model; experiment: Nerve conduction velocity in rat streptozotocin-induced diabetes model; type: in vivo; settings: 10 mg/kg oral twice a day, days 14 to 28 after induction, vs vehicle group
Method: Streptozotocin (50 mg/kg, Sigma-Aldrich) was administered intravenously to SD rats (6 weeks old, male; CHARLES RIVER LABORATORIES JAPAN, INC.) via the tail vein, thereby preparing the streptozotocin-induced diabetes model. Streptozotocin was dissolved in a citrate buffer to prepare a 25 mg/mL solution, and then administered. A no pathological condition-induced animal was prepared by administering no streptozotocin solution. The day of initial administration was designated as day 1 after induction of pathological conditions.
On days 14 to 28 after induction of pathological conditions, a solution containing compound 1 (3 or 10 mg/kg) or a solvent thereof (water for injection) was orally administered to rats twice a day. […]
Nerve conduction velocity was measured within 3 days from the next day of the final administration. […] A-B stimulation and B-C stimulation were designated as distal stimulation and proximal stimulation, respectively, and then the transmission time of stimulation was analyzed on the basis of each lead-out waveform obtained from the electrode at the footpad. Nerve conduction velocity was calculated on the basis of a difference in transmission time between the distal stimulation and the proximal stimulation and the distance between the electrodes.

[4] = system: rat streptozotocin-induced diabetes model; experiment: Mechanical allodynia (von Frey test) in rat streptozotocin-induced diabetes model; type: in vivo; settings: day 28, 3 hours after administration, vs vehicle group
Method: Streptozotocin (50 mg/kg, Sigma-Aldrich) was administered intravenously to SD rats (6 weeks old, male; CHARLES RIVER LABORATORIES JAPAN, INC.) via the tail vein, thereby preparing a streptozotocin-induced diabetes model. Streptozotocin was dissolved in physiological saline (Otsuka Pharmaceutical Factory, Inc.) to prepare a 25 mg/mL solution and then administered. Further, a pseudo-induction animal was also prepared by administering physiological saline instead of the streptozotocin solution. The initial day of administration was designated as day 0 after induction of pathological conditions.
[…] Groups were composed of 4 groups: a pseudo-induction and solvent administration group (sham group); a pathological condition-induced and solvent administration group (vehicle group); a pathological condition-induced and compound 1 (10 mg/kg) administration group (compound 1 (10 mg/kg) group); and a pathological condition-induced and compound 1 (30 mg/kg) administration group (compound 1 (30 mg/kg) group).
Beneficial effects on mechanical allodynia were evaluated in a manner similar to Example 5, and this evaluation was performed at 3 hours after administration of compound 1 on day 28 after induction of pathological conditions.

CN(C)C1CCN(C(=O)C[C@H](O)c2nccn2C)CC1 [Compound 1, (S)-1-(4-(dimethylamino)piperidin-1-yl)-3-hydroxy-3-(1-methyl-1H-imidazol-2-yl)propan-1-one]
cell viability (decrease caused by cisplatin) [1]: suppressed decrease | number of myelin sheath segments [2]: Increased number of myelin sheath segments | nerve conduction velocity [3]: Significant increases in nerve conduction velocity | 50% response threshold in von Frey test (mechanical allodynia) ([4]; 10 mg/kg oral single dose): significant increases in 50% response threshold | 50% response threshold in von Frey test (mechanical allodynia) ([4]; 30 mg/kg oral single dose): significant increases in 50% response threshold
